For 19 compounds, IC50 results are on record in patent publication US5378716A, “Pyrazol-1-yl phenoxyacetic acid compounds which have useful pharmaceutical utility” (Ono Pharmaceutical Co., Ltd., priority 1992, dated 1995).

Test [1] deals with human blood platelet aggregation. Nature of the test: Inhibitory effect on human blood platelet aggregation (ADP-induced, platelet-rich plasma). The format is cell-based. To be noted: human PRP (5×10^5 platelets/mm^3), compound added 1 minute prior to ADP (4 μm), read-out: IC50, inhibition of human blood platelet aggregation. On the procedure: ii) Inhibitory effect on human blood platelet aggregation
Platelet-rich plasma (PRP) was prepared from human blood (5×10^5 platelets/mm^3) and a test compound was added to PRP 1 minute prior to the addition of ADP (4 μm). The aggregation was monitored using a platelet aggregometer (NBS HEMA TRACER 601, Niko Bioscience, Japan).

Test [2] concerns the target T1, PGI2 receptor in the human blood platelet membrane fraction (Homo sapiens, UniProt P43119).
T1 construct: human blood platelet membrane fraction (0.3 mg protein) was added; from tissue; host or cells: human blood platelets (membrane fraction)
Nature of the test: Inhibitory activity on binding of [^3 H]-iloprost to PGI2 receptor in the human blood platelet membrane fraction. The following applies: 10 nM [^3 H]-iloprost, human blood platelet membrane fraction (0.3 mg protein), pH 7.4, 24° C., 30 min; read-out: IC50, inhibition of [^3 H]-iloprost binding to PGI2 receptor. On the procedure: i) Inhibitory activity on binding of [^3 H]-iloprost to PGI2 receptor in the human blood platelet membrane fraction
50 mM Tris-HCl buffer (pH 7.4) containing 15 mM MgCl2, 5 mM EDTA and 10 nM [^3 H]-iloprost were used as reaction medium. To 0.2 ml of the reaction medium, human blood platelet membrane fraction (0.3 mg protein) was added with or without a test compound. The mixture was incubated at 24° C. for 30 min. After incubation, 4 ml of ice-cold 10 mM Tris-HCl buffer (pH 7.4) was added to the reaction mixture, the mixture was filtered through Whatman GF/B glass fiber filter and washed 4 times with 4 ml of ice-cold 10 mM Tri-HCl buffer (pH 7.4) to separate bound and free [^3 H]-iloprost. After washing, the filter was dried and radioactivity was counted. Non-specific binding was obtained by performing parallel binding experiments in the presence of 10 μM non-labelled iloprost. Specific binding was calculated by subtracting the non-specific binding from the total binding.
The inhibitory effect of a test compound was calculated from the following equation.
The percentage of inhibition (%)=100-(B1 /B0 ×100)
B1 :specific [^3 H]-iloprost binding in the presence of a test compound
B0 :specific [^3 H]-iloprost binding in the absence of a test compound

T1 sequence (P43119 whole entry): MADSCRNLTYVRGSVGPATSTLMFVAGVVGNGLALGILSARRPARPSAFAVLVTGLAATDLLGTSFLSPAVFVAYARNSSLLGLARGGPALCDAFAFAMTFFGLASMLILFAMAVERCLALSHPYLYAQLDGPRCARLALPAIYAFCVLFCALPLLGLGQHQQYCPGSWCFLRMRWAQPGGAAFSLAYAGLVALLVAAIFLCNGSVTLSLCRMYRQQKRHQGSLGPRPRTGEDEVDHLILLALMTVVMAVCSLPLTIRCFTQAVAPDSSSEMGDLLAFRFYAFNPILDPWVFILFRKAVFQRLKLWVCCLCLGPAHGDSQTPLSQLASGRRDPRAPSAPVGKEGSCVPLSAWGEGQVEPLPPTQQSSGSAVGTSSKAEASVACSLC

Regarding `O=C(O)COc1cccc(CCCc2cc(C(c3ccccc3)c3ccccc3)on2)c1` [Example 19, 3-[3-(5-diphenylmethylisoxazol-3-yl)propyl]phenoxyacetic acid], the IC50 (as a rule, the concentration that inhibits the measured activity by half) in test [1] worked out at 0.16 µM; in test [2], 0.12 µM. With `O=C(O)COc1cccc(CCCC(=O)N(Cc2ccccc2)Cc2ccccc2)c1` [8(l), 3-[3-(N,N-Dibenzylaminocarbonyl)propyl]phenoxyacetic acid], the IC50 in test [2] is 1.5 µM. For `O=C(O)COc1cccc(CCCCOC(c2ccccc2)c2ccccc2)c1` [Example 12, 3-(4-Diphenylmethyloxybutyl)phenoxyacetic acid], the IC50 was 5 µM in test [1] and 1.3 µM in test [2].

For `CCCC(CCCc1cccc(OCC(=O)O)c1)NOC(c1ccccc1)c1ccccc1` (stereo not drawn) [Example 6, 3-(4-Diphenylmethyloxyaminoheptyl)phenoxyacetic acid], in test [2], the IC50 was 3 µM.

Turning to `O=C(O)COc1cccc(CCCn2cc(C(c3ccccc3)c3ccccc3)nn2)c1` [17(c), 3-[3-(4-Diphenylmethyl-1,2,3-triazol-1-yl)propyl]phenoxyacetic acid], the results for the half-maximal inhibitory concentration (IC50) in test [1] and in test [2] were 0.47 µM and 0.27 µM, respectively. `O=C(O)COc1cccc(CCCC(=O)NC(c2ccccc2)c2ccccc2)c1` [8(n), 3-(3-Diphenylmethylaminocarbonylpropyl)phenoxyacetic acid]: the 50% inhibitory concentration (IC50) came out at 3.1 µM in test [1] and 2 µM in test [2]. Take `O=C(O)COc1cccc(CCCON=C(c2ccccc2)c2cccnc2)c1` [17(x), 3-[3-[1-Phenyl-1-(3-pyridyl)methylideneaminooxy]propyl]phenoxyacetic acid]: the IC50 in test [2] was 5 µM. Regarding `COC(=O)COc1cccc(CCCC(=O)OC(c2ccccc2)c2ccccc2)c1` [Example 15, Methyl 3-(3-diphenylmethyloxycarbonylpropyl)phenoxyacetate], the 50% inhibitory concentration (IC50) in test [2] was 4 µM.

Regarding `O=C(O)COc1cccc(CCCC=NOC(c2ccccc2)c2ccccc2)c1` [Example 2, 3-(4-Diphenylmethyloxyiminobutyl)phenoxyacetic acid], in test [2], the IC50 stood at 4.8 µM. Consider `O=C(O)COc1cccc(/C=C/Cn2cc(C(c3ccccc3)c3ccccc3)cn2)c1` [17(i), 3-[3-(4-Diphenylmethylpyrazol-1-yl)-1-propenyl]phenoxyacetic acid], for which the IC50 in test [2] is 0.22 µM. Regarding `O=C(O)COc1ccccc1CCCCn1cc(C(c2ccccc2)c2cccnc2)cn1` (stereo not drawn) [17(n)], the IC50 in test [2] was determined as 2 µM.

As for `O=C(O)COc1cccc(OCCn2cc(C(c3ccccc3)c3ccccc3)cn2)c1` [17(cc), 3-[2-(4-Diphenylmethylpyrazol-1-yl)ethyloxy]phenoxyacetic acid], the values for the IC50 in test [1] and in test [2] were 0.41 µM and 0.26 µM, respectively. In the same order, the values of `CCCC(CCCc1cccc(OCC(=O)O)c1)=NOC(c1ccccc1)c1ccccc1` [Example 4, 3-(4-Diphenylmethyloxyiminoheptyl)phenoxyacetic acid] are 3.7 µM and 1.6 µM. With `O=C(O)COc1cccc(CCCn2cc(C(c3ccccc3)c3ccccc3)cn2)c1` [Example 17, 3-[3-(4-diphenylmethylpyrazol-1-yl)propyl]phenoxyacetic acid], the results for the IC50 in test [1] and in test [2] were 0.42 µM and 0.15 µM, respectively.

On to `O=C(O)COc1cccc(CCCC(=O)NN(c2ccccc2)c2ccccc2)c1` [8(o), 3-[3-[(N,N-Diphenylamino)aminocarbonyl]propyl]phenoxyacetic acid], for which the figures for the IC50 in test [1] and in test [2] were 0.97 µM and 0.46 µM, respectively. `O=C(O)COc1cccc(CCCc2noc(C(c3ccccc3)c3ccccc3)n2)c1` [Example 23, 3-[3-(5-diphenylmethyl-1,2,4-oxadiazol-3-yl)propyl]phenoxyacetic acid]: the IC50 came to 0.37 µM in test [1] and 1.5 µM in test [2]. `Cc1c(/C=C/Cn2cc(C(c3ccccc3)c3ccccc3)cn2)cccc1OCC(=O)O` [17(s), 2-Methyl-3-[3-(4-diphenylmethylpyrazol-1-yl)-1-propenyl]phenoxyaceticacid]: the IC50 came out at 3.2 µM in test [1] and 0.78 µM in test [2]. Take `O=C(O)COc1cccc(CCCc2nc(C(c3ccccc3)c3ccccc3)no2)c1` [Example 21, 3-[3-(3-diphenylmethyl-1,2,4-oxadiazol-5-yl)propyl]phenoxyacetic acid]: the IC50 in test [2] turned out to be 4.4 µM. Turning to `O=C(O)COc1cccc(CCCn2ncc(C(c3ccccc3)c3ccccc3)n2)c1` [17(b), 3-[3-(4-Diphenylmethyl-1,2,3-triazol-2-yl)propyl]phenoxyacetic acid], the IC50 in test [1] turned out to be 0.24 µM; in test [2] it was 0.36 µM.
